4 compounds from patent publication US9289471B2, “Product and process for liquefaction of mucus or sputum” (National Jewish Health, priority 2002, dated 2016) can be followed below.

The experiment in a line: Compaction assay: percent liquid fraction of CF sputum. Details: species or system human. The conditions noted are these: for 3 day range of percent of sputum in the liquid state: donor B; for range of percent liquid values: donor C; for percent liquid fraction: 20 min (FIG. 3A); for liquefying sputum: concentrations below 1 mM. Here is the method: CF sputum stored at −80° C. was thawed at room temperature and aliquoted into 1.5 ml Eppendorf centrifuge tubes at volumes of 275 μl using a positive displacement pipette (Rainin, Emeryville, Calif.). Sputum samples were subjected to either diluent (H2O), Trx+TR+NADPH, GSH+glutathione reductase+NADPH, dithiothreitol (DTT) or N-acetylcysteine treatment by the addition of 25 μl of H2O containing the appropriate molar concentration of each agent. After brief vortexing (˜1 second), sample tubes were loaded onto a microtube rotisserie (Barnstead, Dubuque, Iowa) and incubated at 37° C. for 20 minutes. Samples were then processed for compaction assay according to methodology originated by Daugherty et al. (Daugherty et al., Biomaterials 16:553-558, 1995). To perform the assay, the contents of each sample were loaded into 100 μl glass micro-capillary tubes (Fisher Scientific) that had been previously welded to 200 μl pipette tips in order to achieve a tight fit. Three modified capillary tubes were used to draw up >90% of each sputum sample. Capillary tubes were then removed from their pipette tip, sealed with clay, and centrifuged for 10 minutes in a hematocrit centrifuge (IEC, Needham Heights, Mass.), followed by measurement of the length in millimeters of the gel (solid) and aqueous (liquid) phases in each tube. The percent liquid fraction of each capillary tube was calculated by dividing aqueous phase length by total length (gel+aqueous)×100. The three measurements of the liquid fraction (%) derived from each sample were then averaged to generate a single value for each treatment condition.
Due to abnormal ion transport caused by defects in the CFTR gene, airway secretions in CF patients are often desiccated. As a consequence, purulent CF sputum is comprised largely of a rigid and nonflowing biopolymer matrix, often referred to as gel phase, and lesser amounts of soluble, liquid phase. To assess the effect of Trx on the ratios of these two phases in sputum, compaction assay measurements were performed. […] After 20 minute incubation, the liquid fraction of each sample was determined by compaction assay.
To examine the effect of NADPH, additional samples from different donors were treated with 30 μM Trx, 0.1 μM TR and either 0, 0.2, 0.6, 1.0 or 2 mM NADPH for 20 minutes.
To assess the reproducibility of compaction assay measurements, sputum samples from three different CF donors were separated into aliquots and frozen. Specifically, freshly isolated CF sputum from three different donors (A, B, C) was separated into 275 μl aliquots and frozen. […] Results obtained from three independent experiments performed on each donor sample were used to evaluate assay reproducibility. On three consecutive days, aliquots were thawed, and treated with water, Trx and its reducing system, dithiothreitol (DTT), or no treatment.
The effectiveness of Trx in liquefying sputum was compared with other monothiol and dithiol reducing agents. Sputum samples were aliquoted and treated with Trx or GSH for 20 minutes and percent liquid determined by compaction assay. Initial compaction assay experiments compared the potencies of the Trx and GSH reducing systems in liquefaction of sputum in the presence of equimolar concentrations of NADPH. […] The analysis of Trx and NAC efficacy also was determined after 20 minute incubation, but on a different set of sputum samples.

For `O[C@H](CS)[C@H](O)CS` (racemic) [DTT, dithiothreitol], the “3 day range of percent of sputum in the liquid state” value is reported as 24-31% (1 mM DTT) and 42-57% (5 mM DTT). The “range of percent liquid values” by setting is: (1 mM DTT) 57-61%; (5 mM DTT) 77-79%. In addition, the “sputum liquefying effectiveness compared with NAC” value (equimolar basis (FIGS. 2 and 3; data not shown)) was “more effective on an equimolar basis than NAC”.

As for `N[C@@H](CCC(=O)N[C@@H](CS)C(=O)NCC(=O)O)C(=O)O` [GSH, glutathione], the liquefying sputum result is “ineffective”. In addition, under “30 μM GSH + 0.1 μM Gr + 2 mM NADPH”, the percent liquid fraction came out at 7.8±5.7%. For the same compound, the percent liquid fraction (100 μM GSH + 0.1 μM Gr + 2 mM NADPH) was 15.9±9.3%. Moreover, for the setting “1 mM GSH + 0.1 μM Gr + 2 mM NADPH”, the percent liquid fraction stood at 27.6±3.9%. The “significance of increase in liquid fraction versus control” value (GSH at comparable or higher concentrations up to 1 mM) is “a significant increase in the liquid fraction of sputum was not observed”.

In the case of `NC(=O)C1=CN([C@@H]2O[C@H](COP(=O)(O)OP(=O)(O)OC[C@H]3O[C@@H](n4cnc5c(N)ncnc54)[C@H](OP(=O)(O)O)[C@@H]3O)[C@@H](O)[C@H]2O)C=CC1` [NADPH, β-Nicotinamide adenine dinucleotide phosphate, reduced form], for the setting “NADPH in the absence of Trx (not shown)”, the “increase in proportion of sputum present in the liquid fraction” value is recorded as “did not cause any increase”.

Take `CC(=O)N[C@@H](CS)C(=O)O` [N-acetylcysteine]: the liquefying sputum result is reported as “ineffective”. For the same compound, for the setting “range of concentrations, 20 min, 4 experiments (FIG. 3B)”, the “effectiveness in causing liquefaction of sputum compared with Trx” value is recorded as “less effective than Trx”.
